Experimental data as given in patent US20060234944A1, “Beta-secretase inhibitors and methods of use” (Oklahoma Medical Reseach Foundation, priority 2001, published 2006).
One block for each molecule: values may come before it. *1 amine or outer side, *2 acyl side, *3 side chain or, on linkers, in order; H or OH if unused. Where a SMILES comes first, the peptide text is derived from it. [ ]: non-standard residue; d: D form. The star is where a group is joined. LeuΨ(S-CHOHCH2)Ala = CC(C)C[C@H](N[*:1])[C@@H](O)C[C@@H](C)C(=O)[*:2]; 5FAM = O=C1OC2(c3ccc(O)cc3Oc3cc(O)ccc32)c2ccc(C(=O)*)cc21; Ahx = NCCCCCC(=O)O

What was measured:
HEK293 cells = assay: Entry of fluorescently labelled inhibitors into cultured cells (flow cytometry); type: cell-based, human; conditions: 10 to 30 minutes incubation
Experimental: Fluorescently labelled inhibitors or fluorescein (Fs) as a control were incubated with suspended cells for time intervals ranging from 10 to 30 minutes. Cells were fixed with paraformaldehyde and permeabilized in 0.2% Tween-20 in PBS for 6 minutes and incubated with anti-fluorescein-Alexa™ 488 antibody (Molecular Probes, Eugene, Oreg.) in order to enhance detection of intracellular inhibitor present from penetration. Flow cytometry (FACSCalibur™) and confocal fluorescent microscopy (Leica TCS NT™) were performed at the Flow and Image Cytometry Lab, OUHSC.

[1] = Transport of conjugated inhibitors into mouse blood cells, splenocytes and brain after i.p. injection
Experimental: Whole blood cells (with EDTA as anti-coagulant in the syringe or in the capillary tube) were isolated from anesthetized animals from the orbital artery or by heart puncture and diluted 1:10 in PBS. Prior to the harvest of other tissue samples, animals were anesthetized and perfused with 150 ml of neutral-buffered 10% formalin. Spleens were harvested intact. Brains were harvested and cerebral hemispheres separated, one for sectioning by cryostat, the other for single cell isolation for flow cytometry.
Sections of the brain hemispheres were obtained by soaking in OCT/PBS at 4° C. for overnight, recovered and frozen in Histo Prep Media.
To collect single cell suspensions, spleens and brain hemispheres were homogenized through a 30 μm screen and directly analyzed by flow cytometric analysis.

plasma Aβ40 [2] = assay: Inhibition of Aβ production in tg2576 transgenic mice (plasma Aβ40 ELISA); type: in vivo
Experimental: Six-month-old tg2576 mice (n=21) were injected intraperitoneally (i.p.) 200 μg of conjugate CPI-3 or with control DMSO, in 200 μl of PBS. Plasma were collected from anesthetized animals by orbital bleed or sephaneous vein into heparinized capillary tubes and clarified by centrifugation. Plasma A≢ 1-40 levels were determined by capture ELISA (BioSource International, Camarillo, Calif.). The peptide analogue of CPI-3, with an amide group instead of the hydroxyethylene isostere was synthesized by SynPep (Camarillo, Calif.).
Since the conjugate inhibitors can cross the blood brain barrier in vivo, enter cells both in vitro and in vivo, and inhibit Aβ production in vitro, inhibition of Aβ production in vivo was determined. Tg2576 mice, expressing the Swedish mutation of the human amyloid precursor protein (including SEQ ID NO: 11) (Hsiao, K., et al., Science 274:99-102 (1996), the teachings of which are incorporated hereby in their entirety) were injected with CPI-3, which is identical in amino acid sequence to CPI-2 and lacks the amino-terminal fluorescein (FAM) derivative. Blood was collected from tg2576 animals at time intervals following injection of 400 μg of CPI-3.

memapsin 2 = molecular target: T1, memapsin 2 (Homo sapiens, UniProt P56817); assay: Inhibition of memapsin 2 cleavage of fluorogenic substrate FS-2 (Ki, Ki apparent, Vi/Vo, % inhibition); type: biochemical; conditions: read-out: Ki for memapsin 2
T1 construct: made in house; host or cells: E. coli
Experimental: Ki is the inhibition equilibrium constant which indicates the ability of compounds to inhibit the β-secretase activity of memapsin 2 and memapsin 1. […] The K1 value is independent of the substrate, and converted from Ki apparent.
The Vi/Vo values depicted in Table 1 were determined at conditions under which the enzyme and inhibitor concentrations were equal (e.g., about 80 nM, 100 nM).
(§1) The relationship of Ki (independent of substrate concentration) to Kiapp is a function of substrate concentration in the assay and the Km for cleavage of the substrate by either memapsin 1 or memapsin 2 by the relationship: Kiapp=Ki(1+[S]/Km).
Ki is the inhibition equilibrium constant which indicates the ability of compounds to inhibit the β-secretase activity of memapsin 2 and memapsin 1. […] The Ki value is independent of the substrate, and converted from Ki apparent.
(§2) An aliquot of the inhibitor of known concentration in DMSO was diluted into 1.8 ml 0.1 M NaOAc, pH 4.0. DMSO and added to a final concentration of 10% (v/v), and memapsin 2 (final concentration of 80 nM), followed by a 20 minute equilibration at 37° C. Compounds were evaluated for the ability to inhibit memapsin 1 and memapsin 2 at concentrations between about 10 nM and about 10 μm of inhibitor.
(§3) The relationship of Ki (independent of substrate concentration) to Kiapp is a function of substrate concentration in the assay and the Km for cleavage of the substrate by either memapsin 1 or memapsin 2 by the relationship: Kiapp=Ki (1+[S]/Km).

plasma Aβ40 [3] = assay: Inhibition of Aβ production in APP/F transgenic mouse model of Alzheimer's disease (plasma Aβ40 sandwich ELISA); type: in vivo, mice; conditions: control inhibitor, 163 nmoles i.p., 2 hours following injection
Experimental: Compounds MMI-138, MMI-165, and MMI-185 were synthesized as described above. Compounds were dissolved in 1 ml of dimethyl sulfoxide (DMSO) to a final concentration of about 1 mg/ml for MMI-165 and MMI-185, and about 10 mg/ml for MMI-138. […] Inhibitors were diluted into PBS or H2O immediately prior to injection, as described below. Inhibition constants were determined by methods described by Ermolieff, et al (Biochem. 39:12450-12456 (2000), the teachings of which are incorporated hereby in their entirety).
The tg2576 strain of mice was obtained from Taconic (Germantown, N.Y.). The APP/F strain of mice were obtained by mating the tg2576 mice with the FVB/N strain. To determine presence of the Swedish APP gene in APP/F mice, the DNA from mice was isolated according to the Qiagen Dneasy™ Tissue Kit. PCR (Qiagen kit and protocol) was used to amplify the fragment of DNA corresponding to the human Swedish APP gene. The following primers were used: […]
At the age of three months, animals of the Alzheimer's disease mouse model APP/F were injected intraperitoneally (i.p.) with about 163 nanomoles of either compounds MMI-138 (molecular weight 674 g/mole; 110 μg per animal, n=2), MMI-165 (molecular weight 626 g/mole; 102 μg per animal, n—2), or MMI-185 (molecular weight 686; 112 μg per animal, n—2).
Heparinized capillary tubes collected blood samples from anesthetized animals from either the retro-orbital sinus or from the saphenous vein at specified intervals following injection. The blood samples were transferred to sterile 1.5 mL microcentrifuge tubes, centrifuged at 5,100 RPM for 10 minutes to recover the plasma (supernatant), and stored at −70° C. until analysis for the Aβ40 by Enzyme Linked-Immuno-Sorbent Assay (ELISA).
A sandwich ELISA (BioSource International, Camarillo, Calif.) was used to determine the levels of Aβ40 in plasma samples. The ELISA utilizes a primary antibody specific for human Aβ for the immobilization of the amino-terminus and a detection antibody specific for the carboxy-terminal amino acids of Aβ40. A conjugated secondary antibody was used to detect the ternary complex, using a stabilized chromogen substrate, quantifiable following addition of 1 M HCl, with the optical densities measured at 450 nm. The procedures were followed according to the BioSource protocol. Optical densities were converted to pg/ml quantities of Aβ40 using a linear regression of the optical densities of standards obtained from the commercial kit, to their known concentrations.

plasma Aβ40 [4] = assay: as above; type: in vivo, mice; conditions: unconjugated inhibitor, MW 935 g/mole
memapsin 1 = molecular target: T2, memapsin 1 (Homo sapiens, UniProt Q9Y5Z0); assay: Inhibition of memapsin 1 cleavage of fluorogenic substrate FS-2 (Ki apparent, % inhibition); type: biochemical; conditions: Table 9; read-out: Ki apparent (nM) Mep1
T2 construct: made in house; host or cells: E. coli
T2 sequence (Q9Y5Z0 63-466): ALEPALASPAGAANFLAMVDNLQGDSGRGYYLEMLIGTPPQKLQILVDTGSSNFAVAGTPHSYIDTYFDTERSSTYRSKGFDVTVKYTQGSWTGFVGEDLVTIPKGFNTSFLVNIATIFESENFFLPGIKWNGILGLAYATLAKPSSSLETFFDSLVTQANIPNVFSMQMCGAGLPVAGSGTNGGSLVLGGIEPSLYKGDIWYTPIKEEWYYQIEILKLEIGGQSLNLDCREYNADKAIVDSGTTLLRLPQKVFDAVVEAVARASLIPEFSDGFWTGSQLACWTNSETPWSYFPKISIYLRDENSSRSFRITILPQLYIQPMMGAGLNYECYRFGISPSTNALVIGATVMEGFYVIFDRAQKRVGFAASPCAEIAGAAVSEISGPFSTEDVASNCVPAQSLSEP
Experimental: Vi/Vo depicts the ratio of initial cleavage velocities of the substrate FS-2 (Ermolieff, et al., Biochemistry […]:12450-12456 (2000)) by memapsin 1 or memapsin 2 in the absence (Vo) or presence (Vi) of a compound of the invention. […] The Vi/Vo values depicted in Table 1 were determined at conditions under which the enzyme and inhibitor concentrations were equal (e.g., about 80 nM, 100 nM).
as §1, §2, §3

[5] = Martin et al., Aids 13:1227-32 (1999); cited from earlier work
[6] = four injections at 2 hour intervals

T1 sequence (P56817 41-454): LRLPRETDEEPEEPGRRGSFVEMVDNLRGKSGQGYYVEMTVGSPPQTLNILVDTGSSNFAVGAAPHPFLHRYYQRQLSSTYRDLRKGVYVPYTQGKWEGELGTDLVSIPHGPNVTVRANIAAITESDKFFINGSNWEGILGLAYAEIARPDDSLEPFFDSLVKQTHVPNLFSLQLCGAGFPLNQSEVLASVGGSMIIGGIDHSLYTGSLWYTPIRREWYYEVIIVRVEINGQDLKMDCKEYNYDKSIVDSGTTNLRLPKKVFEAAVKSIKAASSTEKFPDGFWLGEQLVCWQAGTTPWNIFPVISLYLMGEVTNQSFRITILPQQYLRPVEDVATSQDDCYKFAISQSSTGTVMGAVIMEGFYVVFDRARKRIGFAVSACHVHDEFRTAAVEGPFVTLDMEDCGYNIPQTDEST

SMILES: CC(C)C[C@H](NC(=O)[C@H](CC(N)=O)NC(=O)[C@@H](NC(=O)[C@H](CCC(=O)O)NC(=O)CCCCCNC(=O)c1ccc2c(c1)C(=O)OC21c2ccc(O)cc2Oc2cc(O)ccc21)C(C)C)[C@@H](O)C[C@@H](C)C(=O)N[C@@H](C)C(=O)N[C@@H](CCC(=O)O)C(=O)N[C@@H](Cc1ccccc1)C(=O)NCC(=O)N[C@@H](Cc1ccc(O)cc1)C(=O)NCC(=O)N[C@@H](CCCNC(=N)N)C(=O)N[C@@H](CCCCN)C(=O)N[C@@H](CCCCN)C(=O)N[C@@H](CCCNC(=N)N)C(=O)N[C@@H](CCCNC(=N)N)C(=O)N[C@@H](CCC(N)=O)C(=O)N[C@@H](CCCNC(=N)N)C(=O)N[C@@H](CCCNC(=N)N)C(=O)N[C@@H](CCCNC(=N)N)C(=O)O [CPI-1] ({5FAM-Ahx}-EVN[LeuΨ(S-CHOHCH2)Ala]AEFGYGRKKRRQRRR-OH)
Penetration of cultured cells (intracellular fluorescence) (HEK293 cells): readily penetrated cultured cells within minutes | Uptake into brain (fluorescence) ([1]; 8 hours after i.p. injection, flow cytometry or confocal microscopy of brain sections): penetration of the fluorescent conjugate into all brain cells | Blood cells with strong fluorescence signal ([1]; whole blood 20 minutes after i.p. injection of 0.3 nmol): approximately 100%

SMILES: CC(C)C[C@H](NC(=O)[C@H](CCC(=O)O)NC(=O)CCCCCNC(=O)c1ccc2c(c1)C(=O)OC21c2ccc(O)cc2Oc2cc(O)ccc21)C(=O)N[C@@H](CC(=O)O)C(=O)N[C@@H](CC(C)C)[C@@H](O)C[C@@H](C)C(=O)N[C@H](C(=O)N[C@@H](CCC(=O)O)C(=O)N[C@@H](Cc1ccccc1)C(=O)NCC(=O)NCC(=O)N[C@H](CCCNC(=N)N)C(=O)N[C@H](CCCNC(=N)N)C(=O)N[C@H](CCCNC(=N)N)C(=O)N[C@H](CCCNC(=N)N)C(=O)N[C@H](CCCNC(=N)N)C(=O)N[C@H](CCCNC(=N)N)C(=O)N[C@H](CCCNC(=N)N)C(=O)N[C@H](CCCNC(=N)N)C(=O)N[C@H](CCCNC(=N)N)C(=O)O)C(C)C [CPI-2] ({5FAM-Ahx}-ELD[LeuΨ(S-CHOHCH2)Ala]VEFGG[dR][dR][dR][dR][dR][dR][dR][dR][dR]-OH)
Penetration of cultured cells (intracellular fluorescence) (HEK293 cells): readily penetrated cultured cells within minutes

Ki (memapsin 2): 0.035 µM
SMILES: CC(C)C[C@H](NC(=O)[C@@H](N)CCC(=O)O)C(=O)N[C@@H](CC(=O)O)C(=O)N[C@@H](CC(C)C)[C@@H](O)C[C@@H](C)C(=O)N[C@H](C(=O)N[C@@H](CCC(=O)O)C(=O)N[C@@H](Cc1ccccc1)C(=O)NCC(=O)NCC(=O)N[C@H](CCCNC(=N)N)C(=O)N[C@H](CCCNC(=N)N)C(=O)N[C@H](CCCNC(=N)N)C(=O)N[C@H](CCCNC(=N)N)C(=O)N[C@H](CCCNC(=N)N)C(=O)N[C@H](CCCNC(=N)N)C(=O)N[C@H](CCCNC(=N)N)C(=O)N[C@H](CCCNC(=N)N)C(=O)N[C@H](CCCNC(=N)N)C(=O)O)C(C)C [CPI-3] (H-ELD[LeuΨ(S-CHOHCH2)Ala]VEFGG[dR][dR][dR][dR][dR][dR][dR][dR][dR]-OH; N-terminus and C-terminus assumed)
Plasma Aβ40 level relative to initial value (plasma Aβ40 [2]; 2 hours following i.p. injection): about one third | Aβ level, average low as % of the average initial value (plasma Aβ40 [2]; [6]): 29% | Inhibition of plasma Aβ (plasma Aβ40 [2]; [6]): about 80% | Plasma Aβ40 relative to PBS control two hours following injection (plasma Aβ40 [2]; i.p., various doses): significant dose-dependent reduction | Time of return of plasma Aβ40 to the initial value (plasma Aβ40 [2]; single i.p. injection): ≤ 8 h

SMILES: CC(C)C[C@H](NC(=O)[C@@H](N)CCC(=O)O)C(=O)N[C@@H](CC(=O)O)C(=O)N[C@@H](CC(C)C)[C@@H](O)C[C@@H](C)C(=O)N[C@H](C(=O)N[C@@H](CCC(=O)O)C(=O)N[C@@H](Cc1ccccc1)C(=O)O)C(C)C [OM00-3, ELDL*AVEF] (H-ELD[LeuΨ(S-CHOHCH2)Ala]VEF-OH; N-terminus assumed)
Decrease of plasma Aβ40 (plasma Aβ40 [3]): 16% | Effect on plasma Aβ40 levels (plasma Aβ40 [2]; i.p. injection (FIG. 21C)): did not reduce plasma Aβ40 levels | Inhibition of Aβ40 production in vivo (plasma Aβ40 [4]): failed to inhibit Aβ40 production | Ki (memapsin 1): 0.18 nM

SMILES: CC(C)(C)NC(=O)[C@@H]1CN(Cc2cccnc2)CCN1C[C@@H](O)C[C@@H](Cc1ccccc1)C(=O)N[C@H]1c2ccccc2C[C@H]1O [indinavir]
Crossing of the blood-brain barrier [5]: can cross the blood-brain barrier
